Values after ≈ are worked out from the molar mass of the structure shown. Like-named read-outs stand apart in the source and are kept apart here.
Columns and labels:
[1] = test system: Fluoroquinolone Sensitive Strains; assay: In-vitro antimicrobial test, MIC by two-fold serial agar dilution (NCCLS): fluoroquinolone sensitive strains (Table 17); assay type: cell-based
Method: (§1) The test method was in accordance with the standard NCCLS protocol (Methods for Dilution Antimicrobial Susceptibility Tests for Bacteria that grow Aerobicially, Approved Standards, M7-A5, Fifth Edition, January 2000).
(§2) The antibacterial activities (minimum inhibitory concentration: MIC, mcg/ml) were determined by using the two-fold serial agar dilution method recommended by NCCLS. The media used for preculture and main culture were Tryptic Soya broth (Difco) and Mueller Hinton medium (Difco), respectively. The Mueller Hinton agar was supplemented with 5% sheep blood for streptococci. Overnight cultures were diluted with buffered saline (pH 7.2) to the final cell density of 5×10^6-10^7 CFU/ml, and each bacterial suspension was applied with a replicator (Denley's multipoint inoculator, UK) onto a series of Mueller-Hinton agar plates containing antibacterial agents at various concentrations. Final inoculum was approximately 10^4 CFU/spot. The plates were incubated for 18 hrs at 37° C. The MIC was defined as the lowest concentration of an antibacterial agent that inhibits the development of visible microbial growth on agar.

J 744 (mouse macrophage) = assay: Cytotoxicity test (Alamar blue), J 744 cells (Table 23); assay type: cell-based; settings: minimum drug concentration inhibiting Alamar blue color change; 3 hrs drug exposure, then 96 hrs incubation; J 744 mouse macrophage cells
Method: (§3) Compounds were evaluated for their cytotoxic potential against two […] viz. […] Freshly grown cells were distributed in microtiter plates at a cell density of 10^5-10^6 cells/well and allowed to adhere and form monolayer by incubating the microtiter plate at 37° C. for 24 hrs. […] Following 3 hrs. of drug exposure, cells were washed with D-MEM and incubated further for 96 hrs. Cytotoxic effects of drugs were monitored through daily microscopic observation and by ascertaining the metabolic status through redox indicator Alamar blue. Healthy actively metabolising cells bring about colour change of Alamar blue from blue to pink within an overnight incubation. Cytotoxic drugs inhibit this reaction resulting into blue coloured wells. Minimum drug concentration inhibiting Alamar blue color change i.e. resulting into blue coloured wells for a given drug is considered cytotoxic concentration.

[2] = test system: V79 (Chinese Hamster Lung); assay: Cytotoxicity test (Alamar blue), V79 cells (Table 23); assay type: cell-based; settings: minimum drug concentration inhibiting Alamar blue color change, 3 hrs drug exposure, then 96 hrs incubation
Method: as §3

[3] = test system: Fluoroquinolone-Resistant Strains; assay: In-vitro antimicrobial test, MIC by agar dilution (NCCLS): fluoroquinolone-resistant strains (Table 18); assay type: cell-based
Method: as §1, §2

[4] = Phototoxicity, oral dose and UVA exposure, mice; settings: UVA 4 hours for 4 consecutive days, dose causing ear erythema and oedema
Method: The stock solutions for different doses were prepared freshly on the day of experimentation. Appropriate concentration of each dose was chosen to give a constant dosage volume of 0.3-0.4 ml/20 g body weight of mouse. The treated mice were exposed to UVA light source immediately after dosing for 4 hours and for 4 consecutive days. The mean light intensity in the UVA chamber was adjusted to 0.9-1.2 mW/cm^2. The total irradiation dose was approximately 18 Joules/cm^2/day. A phototoxic dose is one which causes ear erythema and oeadema.

[5] = Escherichia coli, ATCC25922, E. coli ATCC 25922, read-out: MIC, E. coli ATCC 25922
[6] = Staphylococcus aureus, ATCC 25923 / MSSA, MSSA ATCC 25923, read-out: MIC, MSSA ATCC 25923
[7] = Streptococcus pneumoniae, ATCC49619, S. pneumoniae ATCC 49619, read-out: MIC, S. pneumoniae ATCC 49619

Row | SMILES | MIC [1, 5] [µg/mL] | MIC [1, 6] [µg/mL] | MIC [1, 7] [µg/mL] | Cytotoxic concentration, J 744 Macrophage (J 744 (mouse macrophage)) [µg/mL] | further results
1 | CCc1c(N2CCC(O)C(C)C2)c(F)cc2c(=O)c(C(=O)O)cn(C3CC3)c12 (mixture of isomers) [Compound 100, cis/trans-1-Cyclopropyl-6-fluoro-8-ethyl-7-(4-hydroxy-3-methyl-1-piperidinyl)-1,4-dihydro-4-oxo-quinoline-3-carboxylic acid] | – | – | – | – | MIC, E. coli ATCC 25922 [1]: 0.8 µg/mL; MIC, MSSA ATCC 25923 [1]: 0.1 µg/mL; MIC, S. pneumoniae ATCC 49619 [1]: 0.8 µg/mL
2 | Cc1c(N2CCC(N)C(C)(C)C2)c(F)cc2c(=O)c(C(=O)O)cn(C3CC3)c12 (racemic) [Compound 91, (±)1-Cyclopropyl-6-fluoro-1,4-dihydro-8-methyl-7-(4-amino-3,3-dimethyl-1-piperidinyl)-4-oxo-quinoline-3-carboxylic acid] | – | – | – | 1000 | Cytotoxic concentration, V 79 CHL [2]: 750 µg/mL
3 | Cc1c(N2CCC(N)C(C)(C)C2)c(F)cc2c(=O)c(C(=O)O)cn(C3CC3)c12 (racemic) [Compound 92, (±)-1-Cyclopropyl-6-fluoro-1,4-dihydro-8-methyl-7-(4-amino-3,3-dimethyl-1-piperidinyl)-4-oxo-quinoline-3-carboxylic acid] | – | – | – | >1000 | MIC, E. coli ATCC 25922 [1]: 0.05 µg/mL (≈ 0.129 µM); MIC, MSSA ATCC 25923 [1]: 0.025 µg/mL (≈ 0.0645 µM); Cytotoxic concentration, V 79 CHL [2]: >1000 µg/mL
4 | CC[C@@H]1CN(c2c(F)cc3c(=O)c(C(=O)O)cn(C4CC4)c3c2C)CC[C@H]1O (relative stereo) [Compound 88, cis/trans-1-Cyclopropyl-6-fluoro-8-methyl-7-(4-hydroxy-3-ethyl-1-piperidinyl)-1,4-dihydro-4-oxo-quinoline-3-carboxylic acid] | – | – | – | – | MIC, E. coli ATCC 25922 [1]: 0.4 µg/mL (≈ 1.03 µM); MIC, E. faecalis ATCC 29212 ([1]; E. faecalis ATCC 29212): 0.2 µg/mL (≈ 0.515 µM); MIC, MSSA ATCC 25923 [1]: 0.012 µg/mL (≈ 0.0309 µM); MIC, P. aeruginosa 27853 ([1]; P. aeruginosa 27853): 12.5 µg/mL (≈ 32.2 µM); MIC, S. pneumoniae ATCC 49619 [1]: 0.1 µg/mL (≈ 0.257 µM); MIC, S. sanguis ATCC 10556 ([1]; S. sanguis ATCC 10556 (Viridans Streptococci)): 0.2 µg/mL (≈ 0.515 µM); MIC, Cipro^R S. mitis 938 ([3]; Cipro^R S. mitis 938): 3.12 µg/mL (≈ 8.03 µM); MIC, Cipro^R S. sanguis 941 ([3]; Cipro^R S. sanguis 941): 3.12 µg/mL (≈ 8.03 µM); MIC, FQ^R S. pneumoniae 718 ([3]; FQ^R S. pneumoniae 718): 3.12 µg/mL (≈ 8.03 µM); MIC, MRSA 032 ([3]; MRSA 032): 0.8 µg/mL (≈ 2.06 µM)
5 | Cc1c(N2CC[C@@H](N)[C@H](C)C2)c(F)cc2c(=O)c(C(=O)O)cn(C3CC3)c12 (relative stereo) [Compound 89, trans-1-Cyclopropyl-6-fluoro-1,4-dihydro-8-methyl-7-(4-amino-3-methyl-1-piperidinyl)-4-oxo-quinoline-3-carboxylic acid] | – | – | – | 1000 | Cytotoxic concentration, V 79 CHL [2]: 250 µg/mL
6 | Cc1c(N2CC[C@H](N)[C@H](C)C2)c(F)cc2c(=O)c(C(=O)O)cn(C3CC3)c12 (relative stereo) [Compound 90, cis-1-Cyclopropyl-6-fluoro-1,4-dihydro-8-methyl-7-(4-amino-3-methyl-1-piperidinyl)-4-oxo-quinoline-3-carboxylic acid] | – | – | – | 1000 | Cytotoxic concentration, V 79 CHL [2]: 125 µg/mL
7 | Cc1c(N2CC[C@H](N)[C@H](C)C2)c(F)c(N)c2c(=O)c(C(=O)O)cn(C3CC3)c12 (relative stereo) [Compound 111, cis-1-5-Amino-1-cyclopropyl-6-fluoro-1,4-dihydro-8-methyl-7-(4-amino-3-methyl-1-piperidinyl)-4-oxo-quinoline-3-carboxylic acid] | – | – | – | – | MIC, E. coli ATCC 25922 [1]: 1.56 µg/mL (≈ 4.02 µM); MIC, MSSA ATCC 25923 [1]: 0.8 µg/mL (≈ 2.06 µM)
8 | Cc1c(N2CCC(N)C(C)(C)C2)c(F)cc2c(=O)c(C(=O)O)cn(C3CC3)c12 (single isomer, unassigned; (-)) [Compound 93, (−)-1-Cyclopropyl-6-fluoro-1,4-dihydro-8-methyl-7-(4-amino-3,3-dimethyl-1-piperidinyl)-4-oxo-quinoline-3-carboxylic acid] | – | – | – | 1000 | MIC ([1]; Pseudomonas aeruginosa, P. aeruginosa 27853, read-out: MIC, P. aeruginosa 27853): 1.56 µg/mL (≈ 4.03 µM); MIC ([3]; Staphylococcus aureus, MRSA, MRSA 032, read-out: MIC, MRSA 032): 0.4 µg/mL (≈ 1.03 µM); MIC ([3]; Streptococcus mitis, Cipro^R S. mitis 938, read-out: MIC, Cipro^R S. mitis 938): 0.8 µg/mL (≈ 2.06 µM); MIC ([3]; Streptococcus pneumoniae, FQ^R S. pneumoniae 718, read-out: MIC, FQ^R S. pneumoniae 718): 0.4 µg/mL (≈ 1.03 µM); Cytotoxic concentration, V 79 CHL [2]: 250 µg/mL
9 | COc1c(N2CCC(N)C(C)(C)C2)c(F)cc2c(=O)c(C(=O)O)cn(-c3ccc(F)cc3F)c12 (stereo not drawn) [Compound 17, 1-(2,4-Difluorophenyl)-6-fluoro-1,4-dihydro-8-methoxy-7-(4-amino-3,3-dimethyl-1-piperidinyl)-4-oxo-quinoline-3-carboxylic acid] | 0.4 (≈ 0.841 µM) | 0.4 (≈ 0.841 µM) | 1.56 (≈ 3.28 µM) | – | –
10 | CCNC1C(C)CN(c2c(F)cc3c(=O)c(C(=O)O)cn(C4CC4)c3c2OC)CC1C (stereo not drawn) [Compound 39, 1-Cyclopropyl-6-fluoro-1,4-dihydro-8-methoxy-7-(4-ethylamino-3,5-dimethyl-1-piperidinyl)-4-oxo-quinoline-3-carboxylic acid] | 6.25 (≈ 14.5 µM) | 1.56 (≈ 3.62 µM) | > 6.25 | – | –
11 | COc1c(N2CCC(O)C(C)C2)c(F)c(N)c2c(=O)c(C(=O)O)cn(C3CC3)c12 (stereo not drawn) [Compound 116, 5-Amino-1-cyclopropyl-6-fluoro-1,4-dihydro-8-methoxy-7-(4-hydroxy-3-methyl-1-piperidinyl)-4-oxo-quinoline-3-carboxylic acid] | 0.4 (≈ 0.987 µM) | 0.025 (≈ 0.0617 µM) | 0.2 (≈ 0.493 µM) | – | –
12 | COc1c(N2CC(C)C(O)C(C)C2)c(F)c(N)c2c(=O)c(C(=O)O)cn(C3CC3)c12 (stereo not drawn) [Compound 127, 5-Amino-1-cyclopropyl-6-fluoro-1,4-dihydro-8-methoxy-7-(4-hydroxy-3,5-dimethyl-1-piperidinyl)-4-oxo-quinoline-3-carboxylic acid] | 0.4 (≈ 0.954 µM) | < 0.006 | 0.1 (≈ 0.238 µM) | – | –
13 | N[C@@H]1[C@H]2CN(c3nc4c(cc3F)c(=O)c(C(=O)O)cn4-c3ccc(F)cc3F)C[C@@H]12 [Trovafloxacin, reference compound] | – | – | – | 500 | –
14 | C[C@@H]1CN(c2c(F)c(N)c3c(=O)c(C(=O)O)cn(C4CC4)c3c2F)C[C@H](C)N1 [sparfloxacin, reference compound] | – | – | – | – | phototoxic dose [4]: 25 mg/kg

Continued, in another order:

Row | MIC [1, 5] [µg/mL] | MIC [1, 6] [µg/mL] | MIC [1, 7] [µg/mL] | SMILES | Cytotoxic concentration, J 744 Macrophage (J 744 (mouse macrophage)) [µg/mL] | further results
15 | 0.4 (≈ 0.869 µM) | 0.05 (≈ 0.109 µM) | 0.2 (≈ 0.434 µM) | COc1c(N2CCC(NC(C)=O)C(C)(C)C2)c(F)c(N)c2c(=O)c(C(=O)O)cn(C3CC3)c12 (stereo not drawn) [Compound 61, 5-Amino-1-cyclopropyl-6-fluoro-1,4-dihydro-8-methoxy-7-(4-acetylamino-3,3-dimethyl-1-piperidinyl)-4-oxo-quinoline-3-carboxylic acid] | – | –
16 | 0.2 (≈ 0.448 µM) | 0.05 (≈ 0.112 µM) | 0.2 (≈ 0.448 µM) | CCNC1CCN(c2c(F)c(N)c3c(=O)c(C(=O)O)cn(C4CC4)c3c2OC)CC1(C)C (stereo not drawn) [Compound 66, 5-Amino-1-cyclopropyl-6-fluoro-1,4-dihydro-8-methoxy-7-(4-ethylamino-3,3-dimethyl-1-piperidinyl)-4-oxo-quinoline-3-carboxylic acid] | – | –
17 | 0.05 (≈ 0.139 µM) | 0.1 (≈ 0.277 µM) | – | Cc1c(N2CCC(O)CC2)c(F)cc2c(=O)c(C(=O)O)cn(C3CC3)c12 [Compound 83, 1-Cyclopropyl-6-fluoro-8-methyl-7-(4-hydroxy-1-piperidinyl)-1,4-dihydro-4-oxo-quinoline-3-carboxylic acid] | – | –
18 | – | – | 0.05 (≈ 0.129 µM) | Cc1c(N2CCC(N)C(C)(C)C2)c(F)cc2c(=O)c(C(=O)O)cn(C3CC3)c12 (stereo not drawn) [Compound 94, 1-Cyclopropyl-6-fluoro-1,4-dihydro 8-methyl-7-(4-amino-3,3-dimethyl-1-piperidinyl)-4-oxo-quinoline-3-carboxylic acid] | – | –
19 | 1.56 (≈ 3.72 µM) | 0.025 (≈ 0.0596 µM) | 0.4 (≈ 0.954 µM) | COc1c(N2CCC(O)C(C)(C)C2)c(F)c(N)c2c(=O)c(C(=O)O)cn(C3CC3)c12 (stereo not drawn) [Compound 125, 5-Amino-1-cyclopropyl-6-fluoro-1,4-dihydro-8-methoxy-7-(4-hydroxy-3,3-dimethyl-1-piperidinyl)-4-oxo-quinoline-3-carboxylic acid] | – | –

From patent US6964966B2, “Generation triple-targeting, chiral, broad-spectrum antimicrobial 7-substituted piperidino-quinolone carboxylic acid derivatives, their preparation, compositions and use as medicaments” (Wockhardt Limited, priority 2001, dated 2005)
